Values joined by “and” are separate entries in the source; they are usually repeats but may differ in a detail not shown here. Equal entries are not always repeated. Where two headings read alike, the source gives them in different places.
Key:
[1] = target: T1, mouse TRPA1 (Mus musculus, UniProt Q8BLA8); test: FLIPR intracellular calcium assay, mouse TRPA1-expressing CHO cells; type: cell-based; settings: FLIPR; for EC50: mTRPA1; for increase in intracellular calcium upon application: mTRPA1 CHO cells
T1 construct: expressed in transfected cells; host or cells: CHO cells

[2] = target: T2, mTRPA1 (Mus musculus, UniProt Q8BLA8); test: Ratiometric calcium imaging of CHO cells expressing mTRPA1; type: cell-based; settings: for increase in intracellular free calcium: ratiometric calcium imaging
T2 construct: expressed in transfected cells; host or cells: CHO cells

[3] = tested on: TRPV1; test: Calcium imaging of TRPV1-expressing CHO cells; type: cell-based
[4] = target: T3, TRPV4 (Homo sapiens, UniProt Q9HBA0); test: Calcium imaging of TRPV4-expressing CHO cells; type: cell-based
T3 construct: expressed in transfected cells; host or cells: CHO cells

[5] = tested on: TRPM8; test: Calcium imaging of TRPM8-expressing CHO cells; type: cell-based
Experimental: We focused on the two mTRPA1-specific compounds. Using FLIPR, we determined the concentration for half maximal activation to be 61±9 μM for cinnamaldehyde and 22±3 μM for allyl isothiocyanate. […] Ruthenium red, a known blocker of mTRPA1, blocked the cinnamaldehyde response.
(§1) We next tested if specific inhibition of PLC by U-73122 would affect TRPA1 activation by bradykinin. […] We then tested if PLC inhibition of TRPA1 was stimulus specific. […] We further tested the role of PLC inhibition on TRPM8.

[6] = tested on: adult rat DRG neurons; test: Calcium imaging of cultured adult rat DRG neurons; type: cell-based; settings: 1.6 times the EC50
Description: To further test this hypothesis, and to find out if the pungent compounds described above activate TRPA1 specifically, we performed calcium imaging of adult rat DRG neurons in response to cold, menthol, cinnamaldehyde, allyl isothiocyanate, and bradykinin. […] To a large extent, cinnamaldehyde and menthol activated mutually exclusive populations of cold-responsive neurons, as our model would predict. Allyl isothiocyanate appeared less specific as it activated 63% of the cold-responsive population (including a large overlap with menthol) and 12% of the cold-insensitive population. We have used 1.6 times the EC50 values of cinnamaldehyde and allyl isothiocyanate to enable us to directly compare DRG response profiles to these compounds. […] There were no significant differences in profiles of cinnamaldehyde and allyl isothiocyanate between cultures in the presence of 1 and 100 ng/ml of NGF.
In addition to the pungent sensory compounds, we have shown that BK can activate TRPA1.
To test if garlic extracts and allicin specifically activate TRPA1 in native neurons, we performed calcium imaging of adult rat DRG neurons. […] Addition of allicin or garlic extract to cultured rat DRG neurons activated a specific population of neurons.

[7] = tested on: B2R/TRPA1- expressing CHO cells; test: Calcium imaging of BK responses in B2R/TRPA1-expressing CHO cells; type: cell-based; settings: 10 μM
Description: as §1

[8] = tested on: B2R-expressing cells; test: Calcium imaging of BK responses in B2R-expressing cells; type: cell-based; settings: 10 μM
Description: as §1

[9] = target: TRPA1 (Homo sapiens, UniProt O75762); test: Thapsigargin response of cells transiently transfected with hTRPA1 and YFP reporter; type: cell-based; design: expressed in transfected cells; settings: same coverslip
Description: Phospholipase C (PLC) and phospholipase A2 are activated by BK signaling. Since many TRP channels are modulated by PLC activity, we tested whether downstream affectors of PLC can modulate TRPA1 function. One of the major consequences of PLC activation is the release of calcium from intracellular stores. We therefore tested if passive release of calcium from the stores with the […] endoplasmic reticulum Ca^2+-ATPase (SERCA) pump blocker thapsigargin could activate TRPA1 function. We examined the effect of thapsigargin on cells transiently-transfected with hTRPA1 and YFP reporter plasmid. This allowed for a direct comparison between TRPA1-expressing (YFP positive) and control (YFP negative) cells under the same experimental conditions (on the same coverslip).

[10] = target: T2, mTRPA1; test: Whole cell patch clamp of mTRPA1-expressing CHO cells; type: cell-based
Description: (§2) We also characterized the cinnamaldehyde-induced current in mTRPA1 expressing CHO cells. […] Expression of either mouse or human TRPA1 (hTRPA1) in Xenopus oocytes rendered these cells responsive to cinnamaldehyde as well as to cold temperatures. […] Indeed, the cinnamaldehyde-induced current from mTRPA1-expressing oocytes rarely returned to baseline, even after washing out the compound.

[11] = target: T1, mouse TRPA1; test: Current recording in Xenopus oocytes expressing mouse TRPA1; type: cell-based
Description: as §2

[12] = target: T4, human TRPA1 (hTRPA1) (Homo sapiens, UniProt O75762); test: Current recording in Xenopus oocytes expressing human TRPA1; type: cell-based
T4 construct: expressed in transfected cells; host or cells: Xenopus oocytes
Description: as §2
Increased currents by repeated application of cinnamaldehyde (sensitization) in oocyte recordings is in contrast to strong desensitization to cinnamaldehyde observed in mTRPA1-expressing CHO cell.

[13] = target: T5, dTRPA1 (dANTKM1) (Drosophila melanogaster, UniProt Q7Z020); test: Current recording in oocytes expressing dTRPA1; type: cell-based
T5 construct: expressed in transfected cells; host or cells: oocytes (Xenopus, from the preceding sentences)
T5 sequence (Q7Z020 1-1197): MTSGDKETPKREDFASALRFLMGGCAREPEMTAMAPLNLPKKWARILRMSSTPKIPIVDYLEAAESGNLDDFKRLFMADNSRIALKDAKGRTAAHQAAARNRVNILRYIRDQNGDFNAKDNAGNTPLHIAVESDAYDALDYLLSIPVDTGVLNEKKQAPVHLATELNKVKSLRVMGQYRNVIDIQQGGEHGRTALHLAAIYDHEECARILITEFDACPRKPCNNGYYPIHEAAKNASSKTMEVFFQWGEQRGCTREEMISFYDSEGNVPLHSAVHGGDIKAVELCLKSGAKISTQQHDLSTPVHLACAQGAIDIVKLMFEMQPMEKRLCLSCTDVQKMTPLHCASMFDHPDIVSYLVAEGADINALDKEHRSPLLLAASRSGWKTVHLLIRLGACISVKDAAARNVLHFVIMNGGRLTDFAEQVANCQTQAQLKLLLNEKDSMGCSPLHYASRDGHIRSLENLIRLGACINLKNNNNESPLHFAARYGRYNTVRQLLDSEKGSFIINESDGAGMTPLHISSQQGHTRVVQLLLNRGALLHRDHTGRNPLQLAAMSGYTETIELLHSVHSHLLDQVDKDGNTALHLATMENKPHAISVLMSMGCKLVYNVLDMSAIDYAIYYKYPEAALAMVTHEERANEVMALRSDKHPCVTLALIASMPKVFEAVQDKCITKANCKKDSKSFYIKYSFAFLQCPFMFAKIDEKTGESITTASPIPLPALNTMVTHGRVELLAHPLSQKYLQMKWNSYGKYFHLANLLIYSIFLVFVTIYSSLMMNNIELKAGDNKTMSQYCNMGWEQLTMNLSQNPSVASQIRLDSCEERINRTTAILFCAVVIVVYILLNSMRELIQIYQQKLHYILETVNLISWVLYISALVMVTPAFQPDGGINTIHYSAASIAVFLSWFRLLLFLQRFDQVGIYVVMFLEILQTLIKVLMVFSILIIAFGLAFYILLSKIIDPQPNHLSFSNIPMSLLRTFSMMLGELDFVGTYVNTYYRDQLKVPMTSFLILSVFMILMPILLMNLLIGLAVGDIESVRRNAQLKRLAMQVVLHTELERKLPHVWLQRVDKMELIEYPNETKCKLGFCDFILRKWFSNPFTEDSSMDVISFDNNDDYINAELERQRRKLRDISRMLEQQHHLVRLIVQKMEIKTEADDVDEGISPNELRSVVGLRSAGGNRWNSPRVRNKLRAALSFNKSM

[14] = Nociceptive behavior after intraplantar injection in mice; type: in vivo; settings: for licking and shaking of the injected hindpaw: wildtype mice, intraplantar, five minutes post-injection, cinnamaldehyde 5 mM and 16.4 mM
[15] = Paw withdrawal latency to heat (hyperalgesia) after intraplantar injection; type: in vivo, mice
Experimental: To provide further evidence of the role of TRPA1 in pain sensation, we investigated if cinnamaldehyde injections could lead to hyperalgesia, an increased response to pain due to sensitization often caused by inflammation or injury. […] In contrast, no significant difference could be observed between the latencies of the two paws when vehicle was injected.
Hyperalgesia to heat is thought to involve sensitization of TRPV1. […] Note that paw withdrawal latencies to heat are higher in TRPV1^−/− mice, consistent with the partial heat sensitivity phenotype of these mice (Caterina et al., Science 288: 306-313, 2000; and Davis et al., Nature 405: 183-187, 2000). Therefore, the acute nociceptive response of cinnamaldehyde is independent of TRPV1, while the heat hyperalgesia is mediated through TRPV1.

[16] = tested on: naïve CHO cells; test: Calcium response of naive CHO cells; type: cell-based; settings: alone
Description: Another downstream effect of PLC activity is the generation of Diacylglycerol (DAG). Therefore, we tested if l-Oleoyl-2-acetyl-sn-glycerol (OAG, a cell permeable analog of DAG) could activate TRPA1. […] OAG alone gives no response in naïve CHO cells. DAG can be converted to poly-unsaturated fatty acid (PUFAs) such as arachidonic acid (AA). […] AA can be converted to numerous metabolites, including prostaglandins. […] However, such a compound named 5,8,11,14-Eicosatetraynoic acid (ETYA) activated TRPA1- expressing CHO cells. Therefore, AA metabolism is not required for the activation of TRPA1.

[17] = target: T2, mTRPA1; test: Screen of cinnamaldehyde-like compounds in heterologous expression systems; type: cell-based; settings: even in millimolar concentrations

T2 sequence (Q8BLA8 whole entry): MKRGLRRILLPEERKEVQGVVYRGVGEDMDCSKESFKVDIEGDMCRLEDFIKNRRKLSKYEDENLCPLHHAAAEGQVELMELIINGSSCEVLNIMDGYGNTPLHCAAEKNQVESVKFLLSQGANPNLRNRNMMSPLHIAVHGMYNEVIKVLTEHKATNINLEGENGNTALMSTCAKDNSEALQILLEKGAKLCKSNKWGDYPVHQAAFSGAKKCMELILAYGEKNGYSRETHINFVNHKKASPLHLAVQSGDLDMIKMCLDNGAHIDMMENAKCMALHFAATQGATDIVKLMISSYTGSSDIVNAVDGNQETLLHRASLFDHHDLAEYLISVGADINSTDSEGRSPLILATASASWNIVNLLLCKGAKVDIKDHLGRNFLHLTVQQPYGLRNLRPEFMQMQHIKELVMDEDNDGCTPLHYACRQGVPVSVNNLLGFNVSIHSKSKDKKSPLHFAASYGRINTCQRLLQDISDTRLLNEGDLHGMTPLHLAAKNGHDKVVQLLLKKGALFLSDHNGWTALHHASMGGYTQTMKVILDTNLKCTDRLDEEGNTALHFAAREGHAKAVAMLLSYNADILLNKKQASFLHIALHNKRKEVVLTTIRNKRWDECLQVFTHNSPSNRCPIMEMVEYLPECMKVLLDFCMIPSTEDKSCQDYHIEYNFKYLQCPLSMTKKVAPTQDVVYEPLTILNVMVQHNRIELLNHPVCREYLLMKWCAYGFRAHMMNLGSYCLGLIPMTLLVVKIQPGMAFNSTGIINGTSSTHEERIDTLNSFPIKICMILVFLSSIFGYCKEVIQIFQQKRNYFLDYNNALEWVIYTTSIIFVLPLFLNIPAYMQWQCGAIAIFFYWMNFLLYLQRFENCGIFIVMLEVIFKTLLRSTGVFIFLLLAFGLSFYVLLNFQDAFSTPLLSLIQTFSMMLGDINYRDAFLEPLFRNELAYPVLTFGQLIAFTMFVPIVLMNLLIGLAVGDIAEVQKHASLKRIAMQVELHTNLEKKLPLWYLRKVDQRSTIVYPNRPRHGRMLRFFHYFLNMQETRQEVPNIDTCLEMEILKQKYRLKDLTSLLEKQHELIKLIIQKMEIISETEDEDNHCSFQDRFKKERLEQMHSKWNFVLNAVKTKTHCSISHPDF
T1 sequence (Q8BLA8 whole entry): as above
T4 sequence (O75762 whole entry): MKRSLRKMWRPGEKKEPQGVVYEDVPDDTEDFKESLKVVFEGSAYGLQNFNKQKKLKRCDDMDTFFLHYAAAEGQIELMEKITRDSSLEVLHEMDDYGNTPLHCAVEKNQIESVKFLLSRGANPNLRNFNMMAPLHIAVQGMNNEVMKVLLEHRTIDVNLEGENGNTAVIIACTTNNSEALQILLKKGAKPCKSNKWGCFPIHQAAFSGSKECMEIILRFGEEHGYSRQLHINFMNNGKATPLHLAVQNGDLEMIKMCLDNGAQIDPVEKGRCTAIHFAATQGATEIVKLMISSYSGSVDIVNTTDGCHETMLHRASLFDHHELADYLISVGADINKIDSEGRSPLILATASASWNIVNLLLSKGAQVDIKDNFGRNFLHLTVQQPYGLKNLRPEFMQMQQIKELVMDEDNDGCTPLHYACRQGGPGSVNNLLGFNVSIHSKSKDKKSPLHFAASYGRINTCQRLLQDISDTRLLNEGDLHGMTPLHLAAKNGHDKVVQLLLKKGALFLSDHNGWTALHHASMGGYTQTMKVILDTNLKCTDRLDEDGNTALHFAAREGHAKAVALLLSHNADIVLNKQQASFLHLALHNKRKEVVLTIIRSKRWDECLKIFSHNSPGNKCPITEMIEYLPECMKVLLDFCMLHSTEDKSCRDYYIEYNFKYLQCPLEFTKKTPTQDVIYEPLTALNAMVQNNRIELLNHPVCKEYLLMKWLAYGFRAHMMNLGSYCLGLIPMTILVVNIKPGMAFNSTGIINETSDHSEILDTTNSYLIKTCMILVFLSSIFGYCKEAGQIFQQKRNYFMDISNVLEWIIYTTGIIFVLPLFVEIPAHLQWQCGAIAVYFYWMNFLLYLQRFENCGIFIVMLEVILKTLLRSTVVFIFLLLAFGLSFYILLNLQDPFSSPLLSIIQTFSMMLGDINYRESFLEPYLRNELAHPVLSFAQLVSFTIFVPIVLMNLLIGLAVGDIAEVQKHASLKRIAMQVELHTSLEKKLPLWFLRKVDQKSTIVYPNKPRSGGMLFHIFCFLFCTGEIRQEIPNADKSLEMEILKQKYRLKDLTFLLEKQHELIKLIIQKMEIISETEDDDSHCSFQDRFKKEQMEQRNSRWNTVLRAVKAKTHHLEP
T3 sequence (Q9HBA0 whole entry, species assumed): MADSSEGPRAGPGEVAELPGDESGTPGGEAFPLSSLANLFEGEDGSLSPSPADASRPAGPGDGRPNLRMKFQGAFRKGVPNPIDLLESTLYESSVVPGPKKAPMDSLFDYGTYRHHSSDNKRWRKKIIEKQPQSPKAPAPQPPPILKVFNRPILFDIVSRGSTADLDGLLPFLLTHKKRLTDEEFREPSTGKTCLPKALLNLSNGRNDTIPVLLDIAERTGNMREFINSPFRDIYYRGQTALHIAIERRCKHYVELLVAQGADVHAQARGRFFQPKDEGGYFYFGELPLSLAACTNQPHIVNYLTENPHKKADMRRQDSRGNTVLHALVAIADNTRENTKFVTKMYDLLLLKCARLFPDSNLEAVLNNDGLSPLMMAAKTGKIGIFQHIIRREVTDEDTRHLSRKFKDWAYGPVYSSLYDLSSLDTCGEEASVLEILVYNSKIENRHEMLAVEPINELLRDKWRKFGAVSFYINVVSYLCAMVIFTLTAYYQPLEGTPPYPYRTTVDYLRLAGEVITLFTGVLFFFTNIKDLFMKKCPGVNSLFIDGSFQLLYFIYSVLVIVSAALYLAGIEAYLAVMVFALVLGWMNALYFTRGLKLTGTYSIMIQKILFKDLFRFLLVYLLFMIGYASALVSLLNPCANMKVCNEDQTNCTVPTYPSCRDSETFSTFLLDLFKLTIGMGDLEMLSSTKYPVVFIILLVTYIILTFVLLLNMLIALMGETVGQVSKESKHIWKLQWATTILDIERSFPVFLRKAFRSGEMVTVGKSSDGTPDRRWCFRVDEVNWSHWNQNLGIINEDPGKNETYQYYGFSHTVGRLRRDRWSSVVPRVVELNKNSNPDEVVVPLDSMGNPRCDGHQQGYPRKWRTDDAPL
Sequence of TRPA1 (O75762 whole entry): as the sequence (O75762 whole entry) above

C=CCN=C=S [allyl isothiocyanate]
specificity to mTRPA1 when tested against TRPM8 and TRPV1 [1]: specific to mTRPA1 | EC50 ([1]; read-out: concentration for half maximal activation (EC50)): 22 ± 3 µM | increase in intracellular calcium upon application [1]: sharp increase in intracellular calcium | increase in intracellular free calcium [2]: robust increase in intracellular free calcium | activation of TRPV1-expressing CHO cells [3]: did not activate | activation of TRPV4-expressing CHO cells [4]: did not activate | activation of TRPM8-expressing CHO cells [5]: did not activate | share of cold-activated (cold-responsive) DRG neurons activated [6]: 63% | share of cold-insensitive neurons activated [6]: 12%

N.N.N.N.N.N.N.N.N.N.N.N.N.N.[Cl-].[Cl-].[Cl-].[Cl-].[Cl-].[Cl-].[O-2].[O-2].[Ru+3].[Ru+3].[Ru+4] [Ruthenium red]
block of AA activation ([2]; stimulus AA): blocked | block of the OAG response ([2]; stimulus OAG): blocked | block of the cinnamaldehyde response ([2]; stimulus cinnamaldehyde): blocked

CCCCC[C@H](O)CC(=O)CCc1ccc(O)c(OC)c1 [Gingerol]
increase in intracellular calcium upon application [1]: sharp increase in intracellular calcium

CCCCC/C=C\C/C=C\C/C=C\C/C=C\CCCC(=O)O [AA, arachidonic acid]
activation of mTRPA1/TRPA1-expressing CHO cells [2]: activated

COc1ccc2c(c1)CC[C@@H]1[C@@H]2CC[C@]2(C)[C@@H](NCCCCCCN3C(=O)CCC3=O)CC[C@@H]12 [U-73343]
inhibition of BK responses in B2R/TRPA1-expressing CHO cells [7]: not | inhibition of BK responses in B2R-expressing cells [8]: not

C/C=C(/C)C(=O)O[C@H]1C(C)=C2[C@H]([C@@H]1OC(=O)CCCCCCC)[C@@](C)(OC(C)=O)C[C@H](OC(=O)CCC)[C@@]1(O)[C@H]2OC(=O)[C@@]1(C)O [thapsigargin]
response in YFP-positive (TRPA1-expressing) cells compared with control cells [9]: slightly smaller than in YFP-negative cells

O=CC=Cc1ccccc1 [cinnamaldehyde]
specificity to mTRPA1 when tested against TRPM8 and TRPV1 [1]: specific to mTRPA1 | increase in intracellular calcium upon application [1]: sharp increase in intracellular calcium | EC50 ([1]; concentration for half maximal activation (EC50)): 61 µM and ~61 µM | increase in intracellular free calcium [2]: robust increase in intracellular free calcium | activation of TRPV1-expressing CHO cells [3]: did not activate | activation of TRPV4-expressing CHO cells [4]: did not activate | activation of TRPM8-expressing CHO cells [5]: did not activate | elicited current [10]: robust desensitized current | response of mouse TRPA1-expressing oocytes [11]: responsive | response of human TRPA1-expressing oocytes [12]: responsive | current of second pulse relative to first pulse ([12]; repeated applications, n=6): 250±23% | response of dTRPA1-expressing oocytes [13]: did not respond | share of cold-activated (cold-responsive) DRG neurons activated [6]: 39% | share of cold-insensitive neurons activated [6]: 1% | response to injection ([14]; TRPV1−/− mice): responded | licking and shaking of the injected hindpaw [14]: induced licking and shaking of the injected hindpaw | heat hyperalgesia ([15]; TRPV1−/− mice): absent | paw withdraw latency, injected compared to control paws ([15]; thirty minutes after injection, p=0.009): significantly lowered

C=CCc1ccc(O)c(OC)c1 [Eugenol]
increase in intracellular calcium upon application [1]: sharp increase in intracellular calcium

CCCCCC#CCC#CCC#CCC#CCCCC(=O)O [ETYA, 5,8,11,14-Eicosatetraynoic acid]
activation of mTRPA1/TRPA1-expressing CHO cells [2]: activated

CCCCCCCC/C=C\CCCCCCCC(=O)OC[C@H](CO)OC(C)=O [OAG, l-Oleoyl-2-acetyl-sn-glycerol]
activation of mTRPA1/TRPA1-expressing CHO cells [2]: robust response | response in naïve CHO cells [16]: no response

O=C(O)C=Cc1ccccc1 [Cinnamic acid, reference compound]
licking and shaking of the injected hindpaw [14]: not observed | activation of mTRPA1 [17]: did not activate

COc1ccc2c(c1)CC[C@@H]1[C@@H]2CC[C@]2(C)[C@@H](NCCCCCCN3C(=O)C=CC3=O)CC[C@@H]12 [U-73122]
effect on TRPA1 activation by cinnamaldehyde ([2]; stimulus cinnamaldehyde): inhibited | effect on TRPA1 activation by cold ([2]; stimulus cold): strongly downregulated | effect on cold- and menthol-induced responses of TRPM8 ([5]; preincubation necessary for menthol block): strongly dowregulated | inhibition of BK responses in B2R/TRPA1-expressing CHO cells [7]: inhibited | inhibition of BK responses in B2R-expressing cells [8]: inhibited
